Assay results as given in US10294244B2, “2,3-dihydro-thiazolo[3,2-A]pyridin-5-one derivatives, intermediates thereof, and their use as antibacterial agents” (Quretech Bio AB, priority 2014, dated 2019).

Test system: C. trachomatis serovar LGV-L2
Assay: Inhibition of infectious Chlamydia progenies (C. trachomatis infectivity, reinfection of HeLa cells, IFU count)
Type: cell-based
Settings: infected HeLa cells, MOI 0.3, compound added 1 hpi, 44-48 h, relative to DMSO-treated control; for inhibition at 50 µM: 50 uM compound; for inhibition at 100 µM: 100 uM compound
Protocol: Cell Culture, C. trachomatis Infections, and Determination of C. trachomatis Infectivity.
HeLa cells were infected with C. trachomatis serovar LGV-L2 at an MOI of 0.3. At 1 hpi, RPMI media containing the different dilutions of the tested compounds in DMSO were added. The different compounds were dissolved to 20 mM in DMSO and were then diluted with RPMI media to be added at 2.5 to 100 μM. After 44-48 h incubation, the cells were osmotically lysed by the addition of cold sterile distilled water to release infectious EB progeny. 5×SPG was added to equalize the osmotic pressure to a 1×SPG isotonic condition. An equal amount of HBSS (Hanks balanced salt solution) (Gibco/Invitrogen) was added to the lysate (yielding a 1:1 dilution) and 10-fold serial dilutions of the resulting mixture was used to infect fresh HeLa cells. At 1 hpi, the inoculum was replaced with RPMI media and the infection allowed to progress for 44-48 hours before fixation and staining. Fixation was performed by adding methanol for 5 minutes and the cells were subsequently washed with phosphate buffered saline (PBS). The chlamydial inclusions were stained by a primary rabbit anti-Chlamydia antibody (generated in-house) and a secondary donkey anti-rabbit FITC-labelled antibody (Jackson ImmunoResearch). The DNA of the cells and Chlamydia was stained by the addition of DAPI. The stained cells were analyzed by an ArrayScan automated scanner (ArrayScan VTI HCS, Thermo Scientific). Data were presented as the relative numbers of IFUs in treated infections compared to the numbers of IFUs in DMSO-treated control infections.
The compounds of Examples 1-33 were tested for inhibition of infectious Chlamydia progenies at concentrations of 2.5 μM, 10 μM, 50 μM and 100 μM. In this document μM stands for micromolar. The compounds of the present disclosure were considered to have antibacterial activity if they provided 50% or more inhibition of infectious Chlamydia progenies using at least one of the tested concentrations in Table 1.

Row | SMILES | inhibition at 50 µM | inhibition at 100 µM
1 | CC(C)COc1c(Cc2cccc3ccccc23)cc(=O)n2c1SC[C@H]2C(=O)O [Example 30, (3R)-7-Isobutoxy-6-[(1-naphthyl)methyl]-4-oxo-1-thia-3a-aza-3-indancarboxylic acid] | 67% | 90%
2 | Cc1cccc(Cc2cc(=O)n3c(c2N(C)C)SC[C@H]3C(=O)O)c1C [Example 31, (3R)-7-(Dimethylamino)-4-oxo-6-[(2,3-xylyl)methyl]-1-thia-3a-aza-3-indancarboxylic acid] | 29% | 86%
3 | Cc1ccc(Cc2cc(=O)n3c(c2N(C)C)SC[C@H]3C(=O)O)c2ccccc12 [Example 32, (3R)-7-(Dimethylamino)-6-[(4-methyl-1-naphthyl)methyl]-4-oxo-1-thia-3a-aza-3-indancarboxylic acid] | 91% | 99%
4 | CC(C)Nc1c(Cc2cccc3ccccc23)cc(=O)n2c1SC[C@H]2C(=O)O [Example 33, (3R)-7-(Isopropylamino)-6-[(1-naphthyl)methyl]-4-oxo-1-thia-3a-aza-3-indancarboxylic acid] |  | 50%
